Where no end group is shown, it is not given here.
Experiments:
injected peptide-BSA = experiment: Titer to the injected peptide in sera of immunised animals (peptide ELISA); assay type: in vivo, mouse; conditions: FIG. 11; Balb/c mice, 30 μg peptide, Alum as adjuvant; S3 = 2 weeks after 3rd injection; detection αIgG
Protocol: Balb/c mice/30 μg Peptide, 2 injections in 2 week intervals. S3=2 weeks after 3rd injection. Alum as adjuvant. […] Detection: αIgG:
(§1) Inhibiting as well as some non-inhibiting peptides were coupled to KLH and injected into mice (wildtype or CETP-transgenic mice; subcutaneously into the flank or intra-dermaly into the ears) or rabbits (subcutaneously into the flank) together with an appropriate adjuvant (aluminium hydroxide and Gerbu 100 for mice and aluminium hydroxide or CFA/IFA for rabbits).
(§2) Titers to injected peptides as well as to the original CETP epitope were determined. In addition, for selected sera also immune response to CETP protein was measured (Results see FIGS. 7a to 7d and FIGS. 19a to 19e).
Subcutaneous injections in the flank were performed in week 1, week 3 and week 7 with 30 μg peptide-KLH per mouse. Intradermal injections in the ear were performed in week 1, week 3 and week 6 with 10 μg peptide-KLH per mouse. Sera were taken 2 weeks after the 3rd injection. Vaccine formulation with Alum (always 1 mg per mouse): up to 250 μl, injected into one flank. The Alum formulation with 1 ml per mouse (500 μl into each flank) was in 1×PBS as buffer. […]

original epitope (p4073) = experiment: Titer to the original CETP epitope in sera of immunised animals (peptide ELISA); assay type: in vivo, mouse; conditions: for titer, original epitope-BSA: FIG. 11, Balb/c mice, 30 μg peptide, Alum as adjuvant, S3, coating 1 μM p4073-BSA, detection αIgG; for antibody response to the original CETP epitope (in words): coupled to KLH, mice and rabbits
Protocol: (§3) Balb/c mice/30 μg Peptide, 2 injections in 2 week intervals. S3=2 weeks after 3rd injection. Alum as adjuvant. Titers against original epitope (p4073) induced by injection of mimotopes. Well coating: 50 μl of 1 μM p4073-BSA or 1 μg/ml activated KLH. Detection: αIgG:
as §1, §2
(§4) Subcutaneous injections in the flank were performed in week 1, week 3 and week 7 with 30 μg peptide-KLH per mouse. Intradermal injections in the ear were performed in week 1, week 3 and week 6 with 10 μg peptide-KLH per mouse. Sera were taken 2 weeks after the 3rd injection. Vaccine formulation with Alum (always 1 mg per mouse): up to 250 μl, injected into one flank. The Alum formulation with 1 ml per mouse (500 μl into each flank) was in 1×PBS as buffer.
Vaccine formulation with Gerbu Adjuvant 100 (Gerbu Cat. Nr. #3100; always 50 μl adjuvant per mouse): 200 μl, 100 μl injected into each flank comprising 1×HEPES as buffer. […]

irrelevant peptide-BSA = experiment: Titer to irrelevant peptide in sera of immunised animals (peptide ELISA); assay type: in vivo, mouse; conditions: for titer, irrelevant peptide-BSA: FIG. 11, Balb/c mice, 30 μg peptide, Alum as adjuvant, S3, detection αIgG; for titer, p irrelevant: Table 1, mice, sera 2 weeks after 3rd injection
Protocol: as §3, §4
Vaccine formulation with Gerbu Adjuvant 100 (Gerbu Cat. Nr. #3100; always 50 μl adjuvant per mouse): 200 μl, 100 μl injected into each flank comprising 1×HEPES as buffer.
Female Balb/c mice, five mice per group, were subcutaneously immunized with 30 μg peptide coupled to KLH. Control groups were administered KLH or C-[…] (SEQ ID NO. 147). As adjuvant alum was used. […] The in vitro ELISA assay to determine the antibody titer was performed with pooled sera after two vaccinations in a two week interval (S2; see FIGS. 7a to 7d). The wells of the ELISA plate were coated with KLH (positive control), mimotope-BSA conjugate, C-[…] (SEQ ID NO. 147) and a irrelevant peptide-BSA conjugate (negative control). The detection was performed with anti-mouse IgG.

recombinant GST-CETP = experiment: Anti-protein ELISA of sera of immunised mice, plates coated with recombinant GST-CETP; assay type: in vivo; conditions: sera of immunised mice
Text: (§5) FIGS. 12a and 12b show the in vivo induction of CETP specific antibodies by the administration of the mimotopes of the invention. Titers to p4073 and its correlation to titers to CETP of selected groups (which show high titers against p4073): gr.4, gr.9, gr.10, gr.14, gr.16-20/gr.1 (KLH), gr.2 (original epitope) as controls. Coating: recombinant GST-CETP or purified rabbit CETP, respectively:
(§6) Sera of each group (5 Balb/c mice each) were combined, diluted 1:100 and tested on ELISA plates coated with recombinant GST-CETP or rabbit CETP, respectively. Detection of bound antibodies was with algG.
as §2

rabbit CETP = experiment: Anti-protein ELISA of sera of immunised mice, plates coated with purified rabbit CETP; assay type: in vivo, mouse; conditions: sera of immunised mice, purified rabbit CETP
Text: as §5, §6, §2

[1] = test system: monoclonal antibody “Frida”; experiment: In vitro inhibition (competition) ELISA with mAb Frida on coated original CETP epitope; assay type: binding, mouse; conditions: detection αIgG1; for inhibition ELISA signal, high / inhibition ELISA signal, low: 2.5 ng mAb Frida; for inhibition ELISA signal, high: high peptide amount; for inhibition ELISA signal, low: low peptide amount
Protocol: Different amounts of peptides (2 and 20 μg, as indicated in the respective figures) derived from Phage Display were incubated with the monoclonal antibody that was used for the screening procedure. Peptides diminishing subsequent binding of the antibody to the original CETP epitope (C-terminal 16 amino acids of CETP protein) coated on ELISA plates were considered as inhibiting. (Results see i.a. FIGS. 19a to 19c)

[2] = FIG. 18b, coat 1 μM 4073 peptide, column without head
[3] = FIG. 18a, coat 1 μM 4073 peptide

## p4351-KLH: C-FGFPAHVSIDWLQYLS coupled to KLH (CFGFPAHVSIDWLQYLS; also: coupled to KLH)
Injected peptide-BSA
  titer, injected peptide-BSA: 2.950
Original epitope (p4073)
  titer, original epitope-BSA: 2.400
Irrelevant peptide-BSA
  titer, irrelevant peptide-BSA: 10
Recombinant GST-CETP; FIG. 12b
  ELISA signal, recombinant GST-CETP: 0.54
Rabbit CETP; FIG. 12b
  ELISA signal, rabbit CETP: 0.59

## p4352-KLH: C-FGFPAHVSIDWLQSIS coupled to KLH (CFGFPAHVSIDWLQSIS; also: coupled to KLH)
Injected peptide-BSA
  titer, injected peptide-BSA: 19.680
Original epitope (p4073)
  titer, original epitope-BSA: 12.070
Irrelevant peptide-BSA
  titer, irrelevant peptide-BSA: 10
Recombinant GST-CETP; FIG. 12a
  ELISA signal, recombinant GST-CETP: 0.48
Rabbit CETP; FIG. 12a
  ELISA signal, rabbit CETP: 0.28

## p4324-KLH: C-FGFPSHLIIDWAQSLS coupled to KLH (CFGFPSHLIIDWAQSLS; also: coupled to KLH)
Injected peptide-BSA
  titer, injected peptide-BSA: 12.570
Original epitope (p4073)
  titer, original epitope-BSA: 7.600
Irrelevant peptide-BSA
  titer, irrelevant peptide-BSA: 10
Recombinant GST-CETP; FIG. 12a
  ELISA signal, recombinant GST-CETP: 0.58
Rabbit CETP; FIG. 12a
  ELISA signal, rabbit CETP: 0.28

## p4228-KLH: P12-21; C-RMFPESFLDTLW coupled to KLH (CRMFPESFLDTLW; also: coupled to KLH)
Irrelevant peptide-BSA; KLH/Alum i.d. (10 μg peptide)
  titer, p irrelevant: no titer
Irrelevant peptide-BSA; KLH/Gerbu s.c. (30 μg peptide)
  titer, p irrelevant: no titer

## p4353-KLH: C-FGFPAHVSIDWLQSLT coupled to KLH (CFGFPAHVSIDWLQSLT; also: coupled to KLH)
Injected peptide-BSA
  titer, injected peptide-BSA: 11.200
Original epitope (p4073)
  titer, original epitope-BSA: 8.650
Irrelevant peptide-BSA
  titer, irrelevant peptide-BSA: 10
Recombinant GST-CETP; FIG. 12a
  ELISA signal, recombinant GST-CETP: 0.57
Rabbit CETP; FIG. 12a
  ELISA signal, rabbit CETP: 0.39

## C-TIYDSFLDSLAS (N-terminal Cys; CETP mimotope) [P12-37]
Original epitope (p4073)
  antibody response to the original CETP epitope (in words): did not induce an antibody response to the original epitope

## p4223-KLH: F2-9; C-SFLDTLT coupled to KLH (CSFLDTLT; also: coupled to KLH)
Irrelevant peptide-BSA; Alum s.c. (30 μg peptide)
  titer, p irrelevant: no titer

## C-SANPRDFLETLF (N-terminal Cys; CETP mimotope) [P12-19]
Original epitope (p4073)
  antibody response to the original CETP epitope (in words): induced an immune response to the original CETP epitope in wt mice and in rabbits

## p4187-KLH: F3-34 C-TFLSSLA coupled to KLH (CTFLSSLA; also: coupled to KLH)
Irrelevant peptide-BSA; Alum s.c. (30 μg peptide)
  titer, p irrelevant: no titer
Irrelevant peptide-BSA; KLH/Gerbu s.c. (30 μg peptide)
  titer, p irrelevant: no titer

## p4181-KLH: F3-6 C-NFLKTLS coupled to KLH (CNFLKTLS; also: coupled to KLH)
Irrelevant peptide-BSA; Alum s.c. (30 μg peptide)
  titer, p irrelevant: no titer
Irrelevant peptide-BSA; KLH/Alum i.d. (10 μg peptide)
  titer, p irrelevant: no titer

## p4188-KLH: F3-38 C-GFLDSLM coupled to KLH (CGFLDSLM; also: coupled to KLH)
Irrelevant peptide-BSA; Alum s.c. (30 μg peptide)
  titer, p irrelevant: no titer
Irrelevant peptide-BSA; KLH/Alum i.d. (10 μg peptide)
  titer, p irrelevant: no titer

## C-PSHLIIDWLQ (N-terminal cysteine; CETP mimotope) [p4819]
[1]; [2]
  inhibition ELISA signal, first value column: 2.226
  inhibition ELISA signal, second value column: 2.158

## C-AAFPAHAAADFLQALA (N-terminal Cys; CETP mimotope) [p4435]
[1]; FIG. 18c, coat 1 μM 4073
  inhibition ELISA signal, high: 1.969
  inhibition ELISA signal, low: 1.281

## C-FKPAHVFIDWLQSLS (N-terminal cysteine; CETP mimotope) [p4478]
[1]; [3]
  inhibition ELISA signal, high: 1.206
  inhibition ELISA signal, low: 2.231

Source: patent US8618046B2, “Treatment of atherosclerosis with cholesterol ester transport protein mimotopes” (Affiris AG, priority 2007, dated 2013)
